Data on two compounds can be found in article PMC10882719 (Frontiers in Neuroscience, 2024).

Structures are written as SMILES. Read-outs that look alike come from different tables or passages of the source.

Assay type in all cases: cell-based
The target in test [1] is T1, 168 GPCRs (Homo sapiens, UniProt P08588).
T1 construct: host or cells: PathHunter cell lines

Test [2] addresses T2, 168 GPCRs (Homo sapiens, UniProt O43614).
T2 construct: host or cells: PathHunter cell lines
T2 sequence (O43614 1-444): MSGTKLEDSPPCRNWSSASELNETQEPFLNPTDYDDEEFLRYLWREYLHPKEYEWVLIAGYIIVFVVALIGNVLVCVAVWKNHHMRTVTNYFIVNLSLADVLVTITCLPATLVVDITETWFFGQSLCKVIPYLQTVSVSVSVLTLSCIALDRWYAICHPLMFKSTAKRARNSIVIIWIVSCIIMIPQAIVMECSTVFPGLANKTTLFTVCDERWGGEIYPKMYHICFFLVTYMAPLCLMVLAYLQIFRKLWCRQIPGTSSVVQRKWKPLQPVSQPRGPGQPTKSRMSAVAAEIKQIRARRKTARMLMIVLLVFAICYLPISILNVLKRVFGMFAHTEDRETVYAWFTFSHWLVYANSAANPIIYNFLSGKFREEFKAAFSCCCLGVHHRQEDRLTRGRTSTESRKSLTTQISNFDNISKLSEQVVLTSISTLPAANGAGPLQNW

Test [3] addresses T3, 168 GPCRs (Homo sapiens, UniProt P08908).
T3 construct: host or cells: PathHunter cell lines
T3 sequence (P08908 1-422): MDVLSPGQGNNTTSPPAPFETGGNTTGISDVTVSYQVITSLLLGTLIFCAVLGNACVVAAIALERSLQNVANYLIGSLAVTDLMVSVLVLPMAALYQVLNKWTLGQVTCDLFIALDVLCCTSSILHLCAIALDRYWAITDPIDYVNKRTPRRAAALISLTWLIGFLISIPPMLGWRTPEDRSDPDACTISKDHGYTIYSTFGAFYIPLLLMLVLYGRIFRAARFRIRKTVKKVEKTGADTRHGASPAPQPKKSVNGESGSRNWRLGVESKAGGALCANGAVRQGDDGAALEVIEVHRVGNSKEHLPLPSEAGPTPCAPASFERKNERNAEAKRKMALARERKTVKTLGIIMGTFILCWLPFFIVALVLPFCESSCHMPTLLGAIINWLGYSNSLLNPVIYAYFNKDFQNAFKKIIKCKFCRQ
The settings on record: HTR1A.

Test [4] addresses T4, 168 GPCRs (Homo sapiens, UniProt P18089).
T4 construct: host or cells: PathHunter cell lines
T4 sequence (P18089 1-450): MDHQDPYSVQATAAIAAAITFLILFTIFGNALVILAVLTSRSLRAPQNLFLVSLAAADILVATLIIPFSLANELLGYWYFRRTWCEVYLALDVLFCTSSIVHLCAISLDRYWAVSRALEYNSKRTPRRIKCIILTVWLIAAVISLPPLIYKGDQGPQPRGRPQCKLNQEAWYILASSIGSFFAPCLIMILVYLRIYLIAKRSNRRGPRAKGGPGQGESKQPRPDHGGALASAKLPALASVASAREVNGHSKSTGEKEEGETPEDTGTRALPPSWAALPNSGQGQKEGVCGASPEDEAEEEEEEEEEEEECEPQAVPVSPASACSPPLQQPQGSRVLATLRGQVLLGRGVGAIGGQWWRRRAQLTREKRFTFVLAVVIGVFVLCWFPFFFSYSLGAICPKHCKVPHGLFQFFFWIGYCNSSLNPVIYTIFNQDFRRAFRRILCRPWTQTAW
Conditions: ADRA2B.

In test [5] the target is T5, 168 GPCRs (Homo sapiens, UniProt P43119).
T5 construct: host or cells: PathHunter cell lines
T5 sequence (P43119 whole entry): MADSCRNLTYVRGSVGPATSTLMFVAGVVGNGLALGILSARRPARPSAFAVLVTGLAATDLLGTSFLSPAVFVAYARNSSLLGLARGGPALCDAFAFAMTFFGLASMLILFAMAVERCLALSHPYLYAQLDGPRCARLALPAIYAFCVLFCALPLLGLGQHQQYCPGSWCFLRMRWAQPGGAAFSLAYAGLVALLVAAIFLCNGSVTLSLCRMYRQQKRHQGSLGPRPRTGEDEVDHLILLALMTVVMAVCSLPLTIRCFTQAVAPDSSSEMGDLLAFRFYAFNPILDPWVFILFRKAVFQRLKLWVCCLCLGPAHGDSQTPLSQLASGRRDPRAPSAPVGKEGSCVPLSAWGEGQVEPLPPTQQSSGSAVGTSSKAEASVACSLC
Conditions: PTGIR.

Test [6] addresses T6, 168 GPCRs (Homo sapiens, UniProt P32248).
T6 construct: host or cells: PathHunter cell lines
T6 sequence (P32248 25-378): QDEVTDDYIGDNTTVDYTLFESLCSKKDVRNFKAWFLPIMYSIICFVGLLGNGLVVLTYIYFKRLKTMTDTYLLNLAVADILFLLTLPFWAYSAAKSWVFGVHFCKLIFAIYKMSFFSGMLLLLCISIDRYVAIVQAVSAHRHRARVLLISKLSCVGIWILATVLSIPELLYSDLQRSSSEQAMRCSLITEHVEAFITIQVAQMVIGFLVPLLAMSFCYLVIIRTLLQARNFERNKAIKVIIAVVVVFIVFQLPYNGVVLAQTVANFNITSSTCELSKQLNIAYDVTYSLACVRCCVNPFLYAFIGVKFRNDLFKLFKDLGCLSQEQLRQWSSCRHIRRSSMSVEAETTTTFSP

T1 sequence (P08588 whole entry): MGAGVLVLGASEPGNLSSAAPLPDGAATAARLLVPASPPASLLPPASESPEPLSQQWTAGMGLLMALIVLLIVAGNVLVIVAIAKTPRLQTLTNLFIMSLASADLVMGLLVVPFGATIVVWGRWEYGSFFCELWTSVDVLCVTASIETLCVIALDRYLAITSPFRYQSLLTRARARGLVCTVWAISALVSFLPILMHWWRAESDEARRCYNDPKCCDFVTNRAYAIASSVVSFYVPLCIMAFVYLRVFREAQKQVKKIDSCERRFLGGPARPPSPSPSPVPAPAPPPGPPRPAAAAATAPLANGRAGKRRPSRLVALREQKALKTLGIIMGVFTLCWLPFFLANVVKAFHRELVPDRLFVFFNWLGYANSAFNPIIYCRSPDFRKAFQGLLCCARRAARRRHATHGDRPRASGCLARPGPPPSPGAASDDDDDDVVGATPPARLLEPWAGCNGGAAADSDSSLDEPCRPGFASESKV

Take `CNC(C)C(=O)c1ccc2c(c1)OCO2` (stereo not drawn) [methylone]: the “% Agonist Activity” value in test [1] (ADRB1, 1 uM) is recorded as -1.7%; in test [1] (ADRB1, 10 uM), -1.4%; in test [2] (HCRTR2, 1 uM) it was 0.2%; in test [2] (HCRTR2, 10 uM), 0.2%; in test [3] (1 uM), 0.8%; in test [3] (10 uM) it was -0.1%. For the same compound, the “% Agonist Activity” value was -1% in test [4] (1 uM); 1.3% in test [4] (10 uM); -4.4% in test [5] (Conc 1 uM); -2.3% in test [5] (Conc 10 uM); -3.4% in test [6] (CCR7, 1 uM); -3.7% in test [6] (CCR7, 10 uM). Further, the “% Antagonist Activity” value was -0.8% in test [1] (ADRB1, 1 uM); -1.2% in test [1] (ADRB1, 10 uM); 6.4% in test [2] (HCRTR2, 1 uM); 2.4% in test [2] (HCRTR2, 10 uM); -5.2% in test [3] (1 uM); -6.4% in test [3] (10 uM). The “% Antagonist Activity” value in test [4] (1 uM) is 8.5%; in test [4] (10 uM), 6.3%; in test [5] (Conc 1 uM), 12.4%; in test [5] (Conc 10 uM) it was -21.5%; in test [6] (CCR7, 1 uM) it was -8.3%; in test [6] (CCR7, 10 uM) it was -3.4%.
For `CNC(C)Cc1ccc2c(c1)OCO2` (stereo not drawn) [MDMA, 3,4-Methylenedioxy methamphetamine, reference compound], the “% Agonist Activity” value in test [1] (ADRB1, 1 uM) is reported as 0.6%; in test [1] (ADRB1, 10 uM) it was 0.5%; in test [2] (HCRTR2, 1 uM), -0.3%; in test [2] (HCRTR2, 10 uM), -0.1%; in test [3] (1 uM), 1.1%; in test [3] (10 uM) it was 2.4%. The “% Agonist Activity” value was found to be 5.2% in test [4] (1 uM); 1.3% in test [4] (10 uM); 2.3% in test [5] (Conc 1 uM); 8.6% in test [5] (Conc 10 uM); 1.9% in test [6] (CCR7, 1 uM); 2.6% in test [6] (CCR7, 10 uM). In addition, the “% Antagonist Activity” value in test [1] (ADRB1, 1 uM) is 2%; in test [1] (ADRB1, 10 uM), 1.9%; in test [2] (HCRTR2, 1 uM), 5.9%; in test [2] (HCRTR2, 10 uM) it was -3.5%; in test [3] (1 uM) it was -5.1%; in test [3] (10 uM), -0.9%. In addition, the “% Antagonist Activity” value is recorded as 12.8% in test [4] (1 uM); 2.9% in test [4] (10 uM); 18.8% in test [5] (Conc 1 uM); 22.7% in test [5] (Conc 10 uM); 1.5% in test [6] (CCR7, 1 uM); 6.8% in test [6] (CCR7, 10 uM).
